Source: the supplement of paper PMC7840683
Structures can show the parent of a compound that is named as a salt.

Test system: HepaRG
Assay: LDH release cytotoxicity, % of total lysis control; higher = more cytotoxic
Conditions: 48 h
Outline: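 Duplicate wells of single-lot HepaRG cells, grown on collagen I-coated 96-well plates, received eight-point half-log series of test chemicals with 100 µM as the top concentration. Exposure lasted 48 h in serum-free induction medium with 0.5% DMSO, while total lysis wells received 0.1% Triton X. Resorufin fluorescence (CytoTox-ONE, Tecan Safire) was used to quantify LDH leaked into 50 µL of spent medium. Values for percent cytotoxicity were normalized to on-plate vehicle and total lysis controls and averaged across the duplicates.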

CCOP(=S)(OCC)SCSP(=S)(OCC)OCC [Ethion]
Conditions	LDH release cytotoxicity [%]
0.03162 µM	-0.671
0.1 µM	-1.31
0.3162278 µM	-1.54
1 µM	-1.6
3.16228 µM	-1.07
10 µM	-1.06
31.6228 µM	-2.53
100 µM	-0.532

CCOC1Oc2ccc(OS(C)(=O)=O)cc2C1(C)C (stereo not drawn) [Ethofumesate]
Conditions	LDH release cytotoxicity [%]
0.031623 µM	-1.31
0.1 µM	-1.58
0.316228 µM	-1.7
1 µM	-3.38
3.16228 µM	-2.65
10 µM	-3.76
31.6228 µM	-3.45
100 µM	12.4

CCCSP(=O)(OCC)SCCC [Ethoprop]
Conditions	LDH release cytotoxicity [%]
0.0325715 µM	-0.633
0.103 µM	-0.669
0.325715 µM	-0.697
1.03 µM	-0.356
3.25715 µM	-0.537
10.3 µM	-0.345
32.5715 µM	0.55
103 µM	2.97

CCOc1ccc2c(c1)C(C)=CC(C)(C)N2 [Ethoxyquin]
Conditions	LDH release cytotoxicity [%]
0.03162 µM	-1.26
0.1 µM	-0.577
0.3162278 µM	-1.06
1 µM	-1.45
3.16228 µM	-1.65
10 µM	-1.77
31.6228 µM	-1.67
100 µM	-0.112

CCCC(=O)OCC [Ethyl butyrate]
Conditions	LDH release cytotoxicity [%]
0.03162 µM	-2.73
0.1 µM	-1.76
0.3162278 µM	-1.67
1 µM	-2.36
3.16228 µM	-1.92
10 µM	-0.558
31.6228 µM	0.726
100 µM	0.69

CCCCCCC(=O)OCC [Ethyl heptanoate]
Conditions	LDH release cytotoxicity [%]
0.03162 µM	-1.33
0.1 µM	-1.43
0.3162278 µM	-1.58
1 µM	-1.97
3.16228 µM	-1.57
10 µM	-1.28
31.6228 µM	0.37
100 µM	3.07

CCOCCOC(C)=O [Ethylene glycol monoethyl ether acetate]
Conditions	LDH release cytotoxicity [%]
0.03162 µM	-1.19
0.1 µM	-0.486
0.3162278 µM	0.156
1 µM	0.488
3.16228 µM	0.0494
10 µM	0.917
31.6228 µM	0.221
100 µM	1.51

OCCO [Ethylene glycol]
Conditions	LDH release cytotoxicity [%]
0.0317809 µM	-0.738
0.1005 µM	-1.93
0.317809 µM	-2.04
1.005 µM	-2.45
3.17809 µM	-1.91
10.05 µM	-1.42
31.7809 µM	-1.26
100.5 µM	0.328

S=C1NCCN1 [Ethylene thiourea]
Conditions	LDH release cytotoxicity [%]
0.03162 µM	-0.742
0.1 µM	-0.402
0.3162278 µM	-0.462
1 µM	-0.602
3.16228 µM	-0.544
10 µM	0.0401
31.6228 µM	0.537
100 µM	0.155

CCOC(=O)c1ccc(O)cc1 [Ethylparaben]
Conditions	LDH release cytotoxicity [%]
0.03162 µM	-0.474
0.1 µM	-1.24
0.3162278 µM	-1.05
1 µM	-1.23
3.16228 µM	-0.851
10 µM	-1.05
31.6228 µM	-0.271
100 µM	0.163

CCOc1ccc(C(C)(C)COCc2cccc(Oc3ccccc3)c2)cc1 [Etofenprox]
Conditions	LDH release cytotoxicity [%]
0.03162 µM	-2.22
0.1 µM	-3.48
0.3162278 µM	-2.37
1 µM	-2.59
3.16228 µM	-2.77
10 µM	-2.63
31.6228 µM	-2.47
100 µM	-1.82

CCOc1cc(C(C)(C)C)ccc1C1COC(c2c(F)cccc2F)=N1 (stereo not drawn) [Etoxazole]
Conditions	LDH release cytotoxicity [%]
0.020871 µM	-3.18
0.066 µM	-1.79
0.20871 µM	-2.56
0.66 µM	-3.05
2.0871 µM	-2.64
6.6 µM	-2.88
20.871 µM	-2.37
66 µM	5.91

C=CCc1ccc(O)c(OC)c1 [Eugenol]
Conditions	LDH release cytotoxicity [%]
0.03162 µM	-2.2
0.1 µM	-1.91
0.3162278 µM	-1.79
1 µM	-2.07
3.16228 µM	-2.07
10 µM	-1.74
31.6228 µM	-0.896
100 µM	-0.336

CCN(Cc1cccc(S(=O)(=O)O)c1)c1ccc(C(=C2C=CC(=[N+](CC)Cc3cccc(S(=O)(=O)O)c3)C=C2)c2ccccc2S(=O)(=O)O)cc1 [FD&C Blue No. 1]
Conditions	LDH release cytotoxicity [%]
0.0204 µM	-1.63
0.0645 µM	-0.475
0.203967 µM	-1.54
0.645 µM	-1.35
2.03967 µM	-1.04
6.45 µM	-0.732
20.3967 µM	-1.07
64.5 µM	-1.76

O=S(=O)(O)c1ccc(N=Nc2c(O)ccc3cc(S(=O)(=O)O)ccc23)cc1 [FD&C Yellow 6]
Conditions	LDH release cytotoxicity [%]
0.03162 µM	-2.21
0.1 µM	-2.28
0.3162278 µM	-3.01
1 µM	-3.07
3.16228 µM	-4.37
10 µM	-4.81
31.6228 µM	-4.8
100 µM	-4.65

Cc1nc[nH]c1CC1CCc2c(C)c3ccccc3n2C1=O (stereo not drawn) [Fabesetron hydrochloride]
Conditions	LDH release cytotoxicity [%]
0.0281443 µM	-1.11
0.089 µM	-1.43
0.281443 µM	-1.19
0.89 µM	-1.4
2.81443 µM	-1.38
8.9 µM	-0.0311
28.144271 µM	43.7
89 µM	76.2

CC1(c2ccc(Oc3ccccc3)cc2)OC(=O)N(Nc2ccccc2)C1=O (stereo not drawn) [Famoxadone]
Conditions	LDH release cytotoxicity [%]
0.0317809 µM	-0.255
0.1005 µM	-1.03
0.317809 µM	-0.879
1.005 µM	-1.52
3.17809 µM	-2.56
10.05 µM	10.7
31.7809 µM	18.1
100.5 µM	64.5

CCc1cc(C2=C(C(=O)O)N(c3ccccc3C(F)(F)F)S(=O)(=O)c3ccccc32)cc2c1OCO2 [Fandosentan potassium salt]
Conditions	LDH release cytotoxicity [%]
0.03162 µM	-0.538
0.1 µM	-0.00891
0.3162278 µM	-0.491
1 µM	-0.769
3.16228 µM	-0.525
10 µM	-0.587
31.6228 µM	2.28
100 µM	48.4

Cc1oc(-c2ccccc2)nc1CCOc1ccc(CC(Nc2ccccc2C(=O)c2ccccc2)C(=O)O)cc1 (stereo not drawn) [Farglitazar]
Conditions	LDH release cytotoxicity [%]
0.03162 µM	-1.27
0.1 µM	-1.73
0.3162278 µM	-0.126
1 µM	-1.05
3.16228 µM	-2.03
10 µM	-1.81
31.6228 µM	67.1
100 µM	78.6

CSC1=NC(C)(c2ccccc2)C(=O)N1Nc1ccccc1 (stereo not drawn) [Fenamidone]
Conditions	LDH release cytotoxicity [%]
0.03162 µM	-1.05
0.1 µM	-1.31
0.3162278 µM	-1.11
1 µM	-1.54
3.16228 µM	-1.63
10 µM	-2.26
31.6228 µM	6.59
100 µM	15.2

CN(C)c1ccc(N=NS(=O)(=O)O)cc1 [Fenaminosulf]
Conditions	LDH release cytotoxicity [%]
0.03162 µM	-1.38
0.1 µM	-1.18
0.3162278 µM	-1.97
1 µM	-2.42
3.16228 µM	-2.64
10 µM	-3.4
31.6228 µM	-3.39
100 µM	-3.64

CCOP(=O)(NC(C)C)Oc1ccc(SC)c(C)c1 (stereo not drawn) [Fenamiphos]
Conditions	LDH release cytotoxicity [%]
0.03162 µM	-1.16
0.1 µM	-1.81
0.3162278 µM	-1.38
1 µM	-1.28
3.16228 µM	-1.13
10 µM	-1.56
31.6228 µM	-1.03
100 µM	0.0773

OC(c1ccc(Cl)cc1)(c1cncnc1)c1ccccc1Cl (stereo not drawn) [Fenarimol]
Conditions	LDH release cytotoxicity [%]
0.031623 µM	-1.68
0.1 µM	-0.827
0.316228 µM	-0.805
1 µM	-2.32
3.16228 µM	-0.581
10 µM	0.969
31.6228 µM	2.21
100 µM	15.4

N#CC(CCc1ccc(Cl)cc1)(Cn1cncn1)c1ccccc1 (stereo not drawn) [Fenbuconazole]
Conditions	LDH release cytotoxicity [%]
0.03162 µM	-0.994
0.1 µM	-0.764
0.3162278 µM	-0.539
1 µM	-0.261
3.16228 µM	-0.9
10 µM	-0.281
31.6228 µM	5.08
100 µM	31.3

CC1(C(=O)Nc2ccc(O)c(Cl)c2Cl)CCCCC1 [Fenhexamid]
Conditions	LDH release cytotoxicity [%]
0.031623 µM	-0.566
0.1 µM	-4.08
0.316228 µM	-4.43
1 µM	-3.83
3.16228 µM	-3.52
10 µM	-3.56
31.6228 µM	-3.14
100 µM	-0.0455

COP(=S)(OC)Oc1ccc([N+](=O)[O-])c(C)c1 [Fenitrothion]
Conditions	LDH release cytotoxicity [%]
0.03162 µM	-1.98
0.1 µM	-2.13
0.3162278 µM	-0.603
1 µM	-1.11
3.16228 µM	-0.939
10 µM	-0.576
31.6228 µM	-0.104
100 µM	0.45
